Measured values: PubChem BioAssay (NCI)
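In this assay, cells in 96-well plates receive the compound at five concentrations for 48 hours. Endpoints are linearly interpolated between the surrounding concentrations. GI50 is the concentration that inhibits growth by half. TGI: total growth inhibition.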

How the values were obtained:
Experiment in all cases: inhibition of tumour cell growth, NCI panel, 48 h
K-562 leukemia = system: K-562 leukemia
CCRF-CEM leukemia = system: CCRF-CEM leukemia
HL-60(TB) leukemia = system: HL-60(TB) leukemia
OVCAR-5 ovarian = system: OVCAR-5 ovarian
DU-145 prostate = system: DU-145 prostate
TK-10 renal = system: TK-10 renal
SNB-75 CNS = system: SNB-75 CNS
HOP-62 NSCLC = system: HOP-62 NSCLC
COLO 205 colon = system: COLO 205 colon
UACC-257 melanoma = system: UACC-257 melanoma
BT-549 breast = system: BT-549 breast
MDA-MB-231 breast = system: MDA-MB-231 breast
A549 NSCLC = system: A549 NSCLC
HCT-15 colon = system: HCT-15 colon
KM12 colon = system: KM12 colon
HS 578T breast = system: HS 578T breast
A498 renal = system: A498 renal
SK-MEL-28 melanoma = system: SK-MEL-28 melanoma
IGROV1 ovarian = system: IGROV1 ovarian
SW-620 colon = system: SW-620 colon
MDA-MB-435 = system: MDA-MB-435
786-0 renal = system: 786-0 renal
HT29 colon = system: HT29 colon
CAKI-1 renal = system: CAKI-1 renal
SK-MEL-2 melanoma = system: SK-MEL-2 melanoma
MALME-3M melanoma = system: MALME-3M melanoma
PC-3 prostate = system: PC-3 prostate
HCC-2998 colon = system: HCC-2998 colon
SF-268 CNS = system: SF-268 CNS
NCI-H23 lung = system: NCI-H23 lung
UACC-62 melanoma = system: UACC-62 melanoma
SN12C renal = system: SN12C renal
NCI-H460 lung = system: NCI-H460 lung
UO-31 renal = system: UO-31 renal
NCI-H226 lung = system: NCI-H226 lung
OVCAR-3 ovarian = system: OVCAR-3 ovarian
SK-MEL-5 melanoma = system: SK-MEL-5 melanoma
HOP-92 NSCLC = system: HOP-92 NSCLC
SF-539 CNS = system: SF-539 CNS
ACHN renal = system: ACHN renal
SK-OV-3 ovarian = system: SK-OV-3 ovarian
SF-295 CNS = system: SF-295 CNS

How did the TGI (K-562 leukemia) turn out when `COC(=O)C1=CC(NC(=O)OCc2ccccc2)C(C(=O)c2ccccc2)C[C@@H]1Sc1ccccc1` (stereo partly specified) was run?
Its TGI is 7720 nM.

What about the TGI (CCRF-CEM leukemia) of the same compound?
The TGI was 4990 nM.

What about the TGI (HL-60(TB) leukemia) of the same compound?
The TGI was 3030 nM.

With `CNCCCNc1nc2ccccc2c2c(=O)c3cc(Cl)ccc3sc12` as the compound, how does the GI50 (OVCAR-5 ovarian) read?
Its GI50 is 1620 nM.

And the TGI (OVCAR-5 ovarian)?
The TGI was 3030 nM.

And the GI50 (DU-145 prostate)?
The GI50 was 1740 nM.

And the TGI (DU-145 prostate)?
The TGI was 3140 nM.

And the GI50 (TK-10 renal)?
Its GI50 is 1990 nM.

What about the TGI (TK-10 renal) of the same compound?
Its TGI is 3480 nM.

And the GI50 (SNB-75 CNS)?
The GI50 was 1310 nM.

And the TGI (SNB-75 CNS)?
Its TGI is 2610 nM.

What about the GI50 (HOP-62 NSCLC) of the same compound?
Its GI50 is 1130 nM.

What about the TGI (HOP-62 NSCLC) of the same compound?
Its TGI is 2440 nM.

What about the GI50 (COLO 205 colon) of the same compound?
The GI50 was 1880 nM.

What about the TGI (COLO 205 colon) of the same compound?
The TGI was 3540 nM.

What about the GI50 (UACC-257 melanoma) of the same compound?
The GI50 was 1800 nM.

What about the TGI (UACC-257 melanoma) of the same compound?
The TGI was 3310 nM.

What about the GI50 (BT-549 breast) of the same compound?
Its GI50 is 13300 nM.

What about the TGI (BT-549 breast) of the same compound?
Its TGI is 40500 nM.

And the GI50 (MDA-MB-231 breast)?
Its GI50 is 1330 nM.

And the TGI (MDA-MB-231 breast)?
The TGI was 2670 nM.

And the GI50 (A549 NSCLC)?
The GI50 was 1550 nM.

What about the TGI (A549 NSCLC) of the same compound?
The TGI was 3040 nM.

What about the GI50 (HCT-15 colon) of the same compound?
The GI50 was 1500 nM.

And the TGI (HCT-15 colon)?
Its TGI is 2920 nM.

And the GI50 (KM12 colon)?
The GI50 was 1480 nM.

And the TGI (KM12 colon)?
The TGI was 2890 nM.

And the GI50 (HS 578T breast)?
Its GI50 is 1720 nM.

What about the TGI (HS 578T breast) of the same compound?
The TGI was 4310 nM.

What about the GI50 (A498 renal) of the same compound?
The GI50 was 2550 nM.

What about the TGI (A498 renal) of the same compound?
Its TGI is 7410 nM.

What about the GI50 (SK-MEL-28 melanoma) of the same compound?
The GI50 was 1820 nM.

What about the TGI (SK-MEL-28 melanoma) of the same compound?
The TGI was 3340 nM.

What about the GI50 (IGROV1 ovarian) of the same compound?
Its GI50 is 1510 nM.

What about the TGI (IGROV1 ovarian) of the same compound?
The TGI was 3180 nM.

What about the GI50 (SW-620 colon) of the same compound?
The GI50 was 1620 nM.

And the TGI (SW-620 colon)?
The TGI was 3090 nM.

What about the GI50 (MDA-MB-435) of the same compound?
Its GI50 is 1760 nM.

And the TGI (MDA-MB-435)?
The TGI was 3190 nM.

What about the GI50 (786-0 renal) of the same compound?
The GI50 was 1710 nM.

And the TGI (786-0 renal)?
Its TGI is 3200 nM.

And the GI50 (HT29 colon)?
The GI50 was 1670 nM.

What about the TGI (HT29 colon) of the same compound?
Its TGI is 3130 nM.

And the GI50 (CAKI-1 renal)?
Its GI50 is 1400 nM.

And the TGI (CAKI-1 renal)?
The TGI was 2700 nM.

And the GI50 (SK-MEL-2 melanoma)?
The GI50 was 1750 nM.

What about the TGI (SK-MEL-2 melanoma) of the same compound?
The TGI was 3430 nM.

What about the GI50 (MALME-3M melanoma) of the same compound?
Its GI50 is 1870 nM.

And the TGI (MALME-3M melanoma)?
Its TGI is 3620 nM.

What about the GI50 (PC-3 prostate) of the same compound?
The GI50 was 1520 nM.

What about the TGI (PC-3 prostate) of the same compound?
Its TGI is 3020 nM.

And the GI50 (HCC-2998 colon)?
Its GI50 is 1690 nM.

What about the TGI (HCC-2998 colon) of the same compound?
Its TGI is 3340 nM.

And the GI50 (SF-268 CNS)?
Its GI50 is 1500 nM.

And the TGI (SF-268 CNS)?
Its TGI is 3010 nM.

What about the GI50 (NCI-H23 lung) of the same compound?
Its GI50 is 1610 nM.

And the TGI (NCI-H23 lung)?
The TGI was 3180 nM.

And the GI50 (UACC-62 melanoma)?
The GI50 was 1620 nM.

And the TGI (UACC-62 melanoma)?
Its TGI is 3040 nM.

What about the GI50 (SN12C renal) of the same compound?
Its GI50 is 1540 nM.

And the TGI (SN12C renal)?
The TGI was 2930 nM.

What about the GI50 (NCI-H460 lung) of the same compound?
Its GI50 is 1610 nM.

And the TGI (NCI-H460 lung)?
The TGI was 3060 nM.

And the GI50 (UO-31 renal)?
Its GI50 is 1160 nM.

And the TGI (UO-31 renal)?
The TGI was 2420 nM.

What about the GI50 (NCI-H226 lung) of the same compound?
Its GI50 is 4580 nM.

What about the TGI (NCI-H226 lung) of the same compound?
The TGI was 47100 nM.

What about the GI50 (OVCAR-3 ovarian) of the same compound?
The GI50 was 1610 nM.

And the TGI (OVCAR-3 ovarian)?
The TGI was 3080 nM.

What about the GI50 (SK-MEL-5 melanoma) of the same compound?
Its GI50 is 2130 nM.

And the TGI (SK-MEL-5 melanoma)?
Its TGI is 5250 nM.

And the GI50 (HOP-92 NSCLC)?
The GI50 was 935 nM.

And the TGI (HOP-92 NSCLC)?
The TGI was 2810 nM.

What about the GI50 (SF-539 CNS) of the same compound?
The GI50 was 1680 nM.

What about the TGI (SF-539 CNS) of the same compound?
Its TGI is 3120 nM.

And the GI50 (ACHN renal)?
The GI50 was 1510 nM.

And the TGI (ACHN renal)?
Its TGI is 2890 nM.

What about the GI50 (SK-OV-3 ovarian) of the same compound?
The GI50 was 1470 nM.

What about the TGI (SK-OV-3 ovarian) of the same compound?
The TGI was 2890 nM.

And the GI50 (SF-295 CNS)?
Its GI50 is 1740 nM.

And the TGI (SF-295 CNS)?
Its TGI is 3270 nM.
